“And” between values parts separate entries of the source, which are not always exact repeats. Equal entries are not always repeated.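 Step 1: Grow cells in 96-well plates. Step 2: Expose to compound for 48 hours at 5 concentrations. Step 3: Interpolate endpoints linearly; if unreached, use highest concentration. The concentration for 50% growth inhibition is given as GI50. At the TGI there is no net growth.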
Legend:
Test in all cases: DTP human tumour cell line panel, 48 h
786-0 renal = test system: 786-0 renal
DU-145 prostate = test system: DU-145 prostate
HT29 colon = test system: HT29 colon
MALME-3M melanoma = test system: MALME-3M melanoma
NCI-H226 lung = test system: NCI-H226 lung
NCI-H460 lung = test system: NCI-H460 lung
OVCAR-4 ovarian = test system: OVCAR-4 ovarian
RXF 393 renal = test system: RXF 393 renal
TK-10 renal = test system: TK-10 renal
U251 CNS = test system: U251 CNS

O=C1C=CC(=O)N1c1ccc(I)cc1
TGI (786-0 renal): 20.7 µM
TGI (DU-145 prostate): 38 µM
TGI (HT29 colon): 45.1 µM
TGI (MALME-3M melanoma): 33.1 µM
TGI (NCI-H226 lung): 46.3 µM
TGI (NCI-H460 lung): > 86.3 µM
TGI (OVCAR-4 ovarian): 60.2 µM
TGI (RXF 393 renal): 33.6 µM
TGI (TK-10 renal): 30.3 µM
TGI (U251 CNS): > 54.9 µM

O=C(O)CNCCc1ccccc1
TGI (786-0 renal): > 100 µM
TGI (DU-145 prostate): > 100 µM
TGI (HT29 colon): > 100 µM
TGI (MALME-3M melanoma): > 100 µM
TGI (NCI-H226 lung): > 100 µM
TGI (NCI-H460 lung): > 100 µM
TGI (OVCAR-4 ovarian): > 100 µM
TGI (RXF 393 renal): > 100 µM
TGI (TK-10 renal): > 100 µM
TGI (U251 CNS): > 100 µM

N#C/C(=C\c1ccc(F)cc1)n1nc2cccc(F)c2n1
GI50 (786-0 renal): 7.13 µM
TGI (786-0 renal): > 100 µM
GI50 (DU-145 prostate): 3.2 µM
TGI (DU-145 prostate): > 100 µM
GI50 (HT29 colon): 3.89 µM
TGI (HT29 colon): > 100 µM
GI50 (MALME-3M melanoma): 5.03 µM
TGI (MALME-3M melanoma): > 100 µM
GI50 (NCI-H226 lung): 4.64 µM
TGI (NCI-H226 lung): > 100 µM
GI50 (NCI-H460 lung): 3.01 µM
TGI (NCI-H460 lung): 12.9 µM
GI50 (OVCAR-4 ovarian): 4.19 µM
TGI (OVCAR-4 ovarian): > 100 µM
GI50 (RXF 393 renal): 2.72 µM
TGI (RXF 393 renal): 27 µM
GI50 (TK-10 renal): 7.01 µM
TGI (TK-10 renal): > 100 µM
GI50 (U251 CNS): 3.52 µM
TGI (U251 CNS): > 100 µM

O=C1c2cccnc2C(=O)c2c1c(C(=O)OCCc1ccccn1)c1ccccn21
GI50 (786-0 renal): 0.252 µM
TGI (786-0 renal): 1.26 µM
GI50 (DU-145 prostate): 0.0296 µM
TGI (DU-145 prostate): 1.22 µM
GI50 (HT29 colon): 1.54 µM
TGI (HT29 colon): 3.35 µM
GI50 (MALME-3M melanoma): 0.0613 µM
TGI (MALME-3M melanoma): 0.924 µM
GI50 (NCI-H226 lung): 0.0277 µM
TGI (NCI-H226 lung): 0.472 µM
GI50 (NCI-H460 lung): < 0.01 µM
TGI (NCI-H460 lung): 0.079 µM
GI50 (OVCAR-4 ovarian): 1.13 µM
TGI (OVCAR-4 ovarian): 8.39 µM
GI50 (RXF 393 renal): 0.124 µM
TGI (RXF 393 renal): 1.4 µM
GI50 (TK-10 renal): 0.34 µM
TGI (TK-10 renal): 2.19 µM
GI50 (U251 CNS): 0.0216 µM
TGI (U251 CNS): 0.261 µM

FC(F)(F)c1ccc(-c2ncc(-c3ccc(C(F)(F)F)cc3)c(NCc3cc(C(F)(F)F)cc(C(F)(F)F)c3)n2)cc1
GI50 (786-0 renal): 3.87 µM
TGI (786-0 renal): > 100 µM
GI50 (DU-145 prostate): 5.25 µM
TGI (DU-145 prostate): > 100 µM
GI50 (HT29 colon): 6.95 µM
TGI (HT29 colon): > 100 µM
GI50 (MALME-3M melanoma): 6.44 µM
TGI (MALME-3M melanoma): 46.3 µM
GI50 (NCI-H226 lung): 3.76 µM
TGI (NCI-H226 lung): 83.8 µM
GI50 (NCI-H460 lung): 3.72 µM
TGI (NCI-H460 lung): 79.4 µM
GI50 (OVCAR-4 ovarian): 4.11 µM
TGI (OVCAR-4 ovarian): > 100 µM
GI50 (RXF 393 renal): 4.73 µM
TGI (RXF 393 renal): 74.9 µM
GI50 (TK-10 renal): 7.51 µM
TGI (TK-10 renal): > 100 µM
GI50 (U251 CNS): 3.57 µM
TGI (U251 CNS): > 100 µM

O=c1[nH]c(F)nc2c1ncn2C1OC(CO)C(O)C1O (centres undefined)
GI50 (786-0 renal): > 100 µM
TGI (786-0 renal): > 100 µM
GI50 (DU-145 prostate): > 100 µM
TGI (DU-145 prostate): > 100 µM
GI50 (MALME-3M melanoma): > 100 µM
TGI (MALME-3M melanoma): > 100 µM
GI50 (NCI-H226 lung): > 100 µM
TGI (NCI-H226 lung): > 100 µM
GI50 (NCI-H460 lung): > 100 µM
TGI (NCI-H460 lung): > 100 µM
GI50 (RXF 393 renal): > 100 µM
TGI (RXF 393 renal): > 100 µM
GI50 (U251 CNS): > 100 µM
TGI (U251 CNS): > 100 µM

Cn1c(NCC(CN2CCCC2)OC(=O)c2ccccc2)cc(=O)n(C)c1=O (centres undefined)
GI50 (786-0 renal): > 100 µM
TGI (786-0 renal): > 100 µM
GI50 (DU-145 prostate): > 100 µM
TGI (DU-145 prostate): > 100 µM
GI50 (HT29 colon): > 100 µM
TGI (HT29 colon): > 100 µM
GI50 (MALME-3M melanoma): 8.69 µM
TGI (MALME-3M melanoma): 40.8 µM
GI50 (NCI-H226 lung): > 100 µM
TGI (NCI-H226 lung): > 100 µM
GI50 (NCI-H460 lung): > 100 µM
TGI (NCI-H460 lung): > 100 µM
GI50 (OVCAR-4 ovarian): > 100 µM
TGI (OVCAR-4 ovarian): > 100 µM
GI50 (RXF 393 renal): > 100 µM
TGI (RXF 393 renal): > 100 µM
GI50 (TK-10 renal): > 100 µM
TGI (TK-10 renal): > 100 µM
GI50 (U251 CNS): > 100 µM
TGI (U251 CNS): > 100 µM

CCOC(=O)[C@@H](C)C[C@H](Cc1ccccc1)NC(=O)c1csc([C@@H](C[C@H](C(C)C)N(C)C(=O)[C@@H](NC(=O)[C@H]2C[C@H](O)CCN2C)C(C)C)OC(C)=O)n1
GI50 (786-0 renal): 0.0273 µM
TGI (786-0 renal): > 16.7 µM
GI50 (DU-145 prostate): 0.00421 µM
GI50 (HT29 colon): 0.0023 µM
TGI (HT29 colon): > 16.7 µM
GI50 (MALME-3M melanoma): 0.00208 µM
TGI (MALME-3M melanoma): > 16.7 µM
GI50 (NCI-H226 lung): 0.0105 µM
TGI (NCI-H226 lung): 0.34 µM
GI50 (NCI-H460 lung): 0.0063 µM
TGI (NCI-H460 lung): > 16.7 µM
GI50 (OVCAR-4 ovarian): 0.0259 µM
TGI (OVCAR-4 ovarian): > 16.7 µM
GI50 (RXF 393 renal): 0.00955 µM
GI50 (TK-10 renal): 0.426 µM
TGI (TK-10 renal): > 16.7 µM
GI50 (U251 CNS): 0.00614 µM
TGI (U251 CNS): > 16.7 µM

C=C(CN1CCN(c2ccccc2C(F)(F)F)CC1)c1ccc(C(=O)Nc2ccccc2N)cc1
GI50 (786-0 renal): 2.36 µM
TGI (786-0 renal): 15.1 µM
GI50 (DU-145 prostate): 7.51 µM
TGI (DU-145 prostate): > 49.5 µM
GI50 (HT29 colon): 4.09 µM
TGI (HT29 colon): 20.2 µM
GI50 (MALME-3M melanoma): 4.17 µM
TGI (MALME-3M melanoma): > 64.1 µM
GI50 (NCI-H226 lung): 7.79 µM
TGI (NCI-H226 lung): 48.1 µM
GI50 (NCI-H460 lung): 5.59 µM
TGI (NCI-H460 lung): 43.6 µM
GI50 (OVCAR-4 ovarian): 6.53 µM
TGI (OVCAR-4 ovarian): > 84.3 µM
GI50 (RXF 393 renal): 1.67 µM
TGI (RXF 393 renal): 4.78 µM
GI50 (TK-10 renal): 4.63 µM
TGI (TK-10 renal): > 67.7 µM
GI50 (U251 CNS): 4.64 µM
TGI (U251 CNS): > 68.1 µM

FC(F)(F)c1cc(-c2ncn(/C=C\c3nnco3)n2)cc(C(F)(F)F)c1
GI50 (786-0 renal): 0.0869 µM
TGI (786-0 renal): > 32.3 µM
GI50 (DU-145 prostate): 0.315 µM
TGI (DU-145 prostate): 22 µM
GI50 (HT29 colon): 0.12 µM
TGI (HT29 colon): 48.2 µM
GI50 (MALME-3M melanoma): 0.102 µM
TGI (MALME-3M melanoma): 0.734 µM
GI50 (NCI-H226 lung): 0.0383 µM
TGI (NCI-H226 lung): 23.6 µM
GI50 (NCI-H460 lung): 0.0384 µM
GI50 (OVCAR-4 ovarian): 0.0442 µM
GI50 (RXF 393 renal): 0.0216 µM
TGI (RXF 393 renal): 0.11 µM
GI50 (TK-10 renal): 0.0803 µM
TGI (TK-10 renal): 12.5 µM
GI50 (U251 CNS): 0.0402 µM
TGI (U251 CNS): 15.6 µM

CC1(C)OC2C(CO)OC(n3ccc(N)nc3=O)C2O1 (centres undefined)
TGI (786-0 renal): > 100 µM
TGI (DU-145 prostate): > 100 µM
TGI (MALME-3M melanoma): > 100 µM
TGI (NCI-H226 lung): > 100 µM
TGI (NCI-H460 lung): > 100 µM
TGI (RXF 393 renal): > 100 µM
TGI (TK-10 renal): > 100 µM
TGI (U251 CNS): > 100 µM

C=C1C(=O)OC2CC1C(OC(C)=O)C/C(C)=C/CC/C(C)=C\CCC2(C)O (centres undefined)
TGI (786-0 renal): 10.5 µM and 19.9 µM
TGI (DU-145 prostate): 14.6 µM and 23.1 µM
GI50 (HT29 colon): 1.69 µM and 4.87 µM
TGI (HT29 colon): 6.44 µM and 18 µM
TGI (MALME-3M melanoma): 15 µM
TGI (NCI-H226 lung): 12.1 µM and 34.2 µM
TGI (NCI-H460 lung): 14.1 µM and 8.22 µM
TGI (OVCAR-4 ovarian): 21 µM and 19.2 µM
TGI (RXF 393 renal): 14 µM
TGI (TK-10 renal): 12.4 µM and 16.1 µM
TGI (U251 CNS): 25.2 µM and 26.7 µM

c1ccc(-c2cn(-c3ccccc3)c(-c3ccccc3)n2)cc1
GI50 (786-0 renal): 2.3 µM
TGI (786-0 renal): 4.67 µM
GI50 (DU-145 prostate): 11.6 µM
TGI (DU-145 prostate): 23.8 µM
GI50 (HT29 colon): 4.79 µM
TGI (HT29 colon): 20.4 µM
GI50 (MALME-3M melanoma): 19.5 µM
TGI (MALME-3M melanoma): 36.7 µM
GI50 (NCI-H226 lung): 19.8 µM
TGI (NCI-H226 lung): 37.7 µM
GI50 (NCI-H460 lung): 13.8 µM
TGI (NCI-H460 lung): 29.7 µM
GI50 (OVCAR-4 ovarian): 16.4 µM
TGI (OVCAR-4 ovarian): 31 µM
GI50 (RXF 393 renal): 17.5 µM
TGI (RXF 393 renal): 33.9 µM
GI50 (TK-10 renal): 14.7 µM
TGI (TK-10 renal): 30.9 µM
GI50 (U251 CNS): 4.08 µM
TGI (U251 CNS): 15.9 µM

CCCOc1ccc(/C=N/Nc2cc(C)nc3ccc(Cl)cc23)cc1
GI50 (786-0 renal): 1.86 µM
TGI (786-0 renal): 3.42 µM
GI50 (DU-145 prostate): 1.9 µM
TGI (DU-145 prostate): 3.42 µM
GI50 (HT29 colon): 1.8 µM
TGI (HT29 colon): 3.49 µM
GI50 (MALME-3M melanoma): 1.79 µM
TGI (MALME-3M melanoma): 3.26 µM
GI50 (NCI-H226 lung): 1.69 µM
TGI (NCI-H226 lung): 3.35 µM
GI50 (NCI-H460 lung): 2.04 µM
TGI (NCI-H460 lung): 4.03 µM
GI50 (OVCAR-4 ovarian): 1.71 µM
TGI (OVCAR-4 ovarian): 3.2 µM
GI50 (RXF 393 renal): 1.55 µM
TGI (RXF 393 renal): 2.94 µM
GI50 (TK-10 renal): 2.04 µM
TGI (TK-10 renal): 3.47 µM
GI50 (U251 CNS): 2.05 µM
TGI (U251 CNS): 3.55 µM
